{"source": "the Kinase Knowledgebase extract (Sharma et al. 2016)"}
{"target": "MAPK14 (human) (UniProt Q16539)", "sequence (Q16539 whole entry, looked up)": "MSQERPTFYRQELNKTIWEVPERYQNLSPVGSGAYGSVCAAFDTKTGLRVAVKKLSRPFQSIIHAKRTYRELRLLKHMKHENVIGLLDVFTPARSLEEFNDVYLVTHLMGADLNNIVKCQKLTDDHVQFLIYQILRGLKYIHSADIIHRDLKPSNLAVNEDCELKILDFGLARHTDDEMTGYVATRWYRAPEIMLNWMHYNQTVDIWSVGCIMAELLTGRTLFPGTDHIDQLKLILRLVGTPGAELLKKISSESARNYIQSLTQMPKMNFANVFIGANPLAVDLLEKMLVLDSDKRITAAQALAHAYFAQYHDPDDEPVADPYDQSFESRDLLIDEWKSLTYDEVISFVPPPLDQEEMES", "assay": "Enzyme Assay", "units": {"IC50": "nM"}}
{"smiles": "COC1CCN(CCOc2cccc(-n3nc(C(C)(C)C)cc3NC(=O)N[C@H]3CC[C@@H](Oc4ccc5nnc(N6CCCC[C@@H]6C)n5c4)c4ccccc43)c2)CC1", "IC50": "< 10"}
{"smiles": "CCN(C)CCc1cccc(-n2nc(C(C)(C)C)cc2NC(=O)N[C@H]2CC[C@@H](Oc3ccc4nnc(N5CCCC[C@@H]5C)n4c3)c3ccccc32)c1", "IC50": "< 10"}
{"smiles": "Cc1ccc(-n2nc(C(C)(C)C)cc2NC(=O)N[C@H]2CC[C@@H](Oc3ccc4nnc(N5CCC[C@@H](O)C5)n4c3)c3ccccc32)cc1", "IC50": "< 10"}
{"smiles": "Cc1ccc(-n2nc(C(C)(C)C)cc2NC(=O)N[C@H]2CC[C@@H](Oc3ccc4nnc(CCN5CCN(C)CC5)n4c3)c3ccccc32)cc1", "IC50": "< 10"}
{"smiles": "COc1c(NC(=O)N[C@H]2CC[C@@H](Oc3ccc4nnc(N5CCCCC5)n4c3)c3ccccc32)cc(C(C)(C)C)cc1NS(C)(=O)=O", "IC50": "< 10"}
{"smiles": "Cc1ccc(-n2nc(C(C)(C)C)cc2NC(=O)N[C@H]2CC[C@@H](Oc3ccc4nnc(N)n4c3)c3ccccc32)cc1", "IC50": "< 10"}
{"smiles": "Cc1ccc(-n2nc(C(C)(C)C)cc2NC(=O)N[C@H]2CC[C@@H](Oc3ccc4nnc(N5CC[C@@H](CO)C5)n4c3)c3ccccc32)cc1", "IC50": "< 10"}
{"smiles": "Cc1ccc(-n2nc(C(C)(C)C)cc2NC(=O)N[C@H]2CC[C@@H](Oc3ccc4nnc(N5CCCC[C@@H]5C)n4c3)c3ccccc32)cc1", "IC50": "< 10"}
{"smiles": "CN1CCN(Cc2cccc(-n3nc(C(C)(C)C)cc3NC(=O)N[C@H]3CC[C@@H](Oc4ccc5nnc(N6CCCCC6)n5c4)c4ccccc43)c2)CC1", "IC50": "< 10"}
{"smiles": "C[C@@H]1CCC[C@H](C)N1c1nnc2ccc(O[C@@H]3CC[C@H](NC(=O)Nc4cc(C(C)(C)C)nn4-c4cnn(CCN(C)C)c4)c4ccccc43)cn12", "IC50": "< 10"}
{"smiles": "CN(C)CCOc1cccc(-n2nc(C(C)(C)C)cc2NC(=O)N[C@H]2CC[C@@H](Oc3ccc4nnc(N5CC6CCC(C6)C5)n4c3)c3ccccc32)c1", "IC50": "< 10"}
{"smiles": "Cc1ccc(-n2nc(C(C)(C)C)cc2NC(=O)N[C@H]2CC[C@@H](Oc3ccc4nnc(-c5ccc(CN6CCOCC6)cc5)n4c3)c3ccccc32)cc1", "IC50": "< 10"}
{"smiles": "CC(C)(C)c1cc(NC(=O)N[C@H]2CC[C@@H](Oc3ccc4nnc(N5CCCCC5)n4c3)c3ccccc32)n(-c2cccc(COCCO)c2)n1", "IC50": "< 10"}
